Test results as given in patent US20200015481A1, “SYNERGISTIC WEED CONTROL FROM APPLICATIONS OF PYRIDINE CARBOXYLIC ACID HERBICIDES AND PHOTOSYSTEM II INHIBITORS” (Dow AgroSciences, LLC, priority 2014, published 2020).

Assays:
[1] = system: ivy-leaved speedwell (VERHE, Veronica hederifolia); assay: Postemergence herbicidal activity, greenhouse (Example 3); format: in vivo
Text: (§1) Compound 1 was formulated as an EC and combined with bentazon, isoproturon, metribuzin and atrazine.

[2] = system: pigweed (Amaranthus retroflexus, AMARE); assay: as above; format: in vivo
Text: as §1

[3] = system: poinsettia (Euphorbia heterophylla, EPHHL); assay: as above; format: in vivo
Text: as §1

[4] = system: wild pansy (VIOTR, Viola tricolor); assay: as above; format: in vivo
Text: as §1

[5] = system: barnyardgrass (Echinochloa crus-galli, ECHCG); assay: as above; format: in vivo
Text: as §1

[6] = system: large crabgrass (Digitaria sanguinalis, DIGSA); assay: as above; format: in vivo
Text: as §1

[7] = system: nutsedge (Cyperus esculentus, CYPES); assay: as above; format: in vivo
Text: as §1

[8] = system: rape (Brassica napus, BRSNN); assay: as above; format: in vivo
Text: as §1

[9] = system: thistle (Cirsium arvense, CIRAR); assay: as above; format: in vivo
Text: as §1

[10] = system: velvetleaf (Abutilon theophrasti, ABUTH); assay: as above; format: in vivo
Text: as §1

winter wheat (TRZAW) [11] = assay: Postemergence crop phytotoxicity, greenhouse (Example 3); format: in vivo, Triticum aestivum; conditions: 20-22 d
Text: as §1

corn (ZEAMX) = assay: as above; format: in vivo, Zea mays; conditions: 20-22 d
Text: as §1

[12] = system: ivyleaf morningglory (Ipomoea hederacea, IPOHE); assay: Postemergence herbicidal activity, greenhouse (Example 2); format: in vivo; conditions: 20-22 d
Method: (§2) Stocks solutions of the compound mixtures were prepared following the same procedure.

[13] = system: nutsedge (Cyperus esculentus, CYPES); assay: as above; format: in vivo; conditions: 20-22 d
Method: as §2

[14] = system: pigweed (AMARE, Amaranthus retroflexus); assay: as above; format: in vivo; conditions: 20-22 d
Method: as §2

[15] = system: poinsettia (Euphorbia heterophylla, EPHHL); assay: as above; format: in vivo; conditions: 20-22 d
Method: as §2

maize (ZEAMX) = assay: Postemergence crop phytotoxicity, greenhouse (Example 2)
Method: as §2

winter wheat (TRZAW) [16] = assay: as above
Method: as §2

winter wheat (TRZAW) [17] = assay: Postemergence crop phytotoxicity, greenhouse (Example 1); conditions: 20-22 d
spring barley (HORVS) = assay: as above; conditions: Bromoxynil 70 g ai/ha, 20-22 d
[18] = system: pigweed (AMARE, Amaranthus retroflexus); assay: Postemergence herbicidal activity, greenhouse (Example 1); conditions: 20-22 d
[19] = system: thistle (CIRAR, Cirsium arvense); assay: as above; conditions: 20-22 d
[20] = system: common sunflower (Helianthus annuus, HELAN); assay: Postemergence herbicidal activity, greenhouse (Example 3); format: in vivo
Text: as §1

rice (ORYSA) = assay: Postemergence crop phytotoxicity, greenhouse (Example 3); format: in vivo, Oryza sativa
Text: as §1

[21] = Compound 1 5 g ae/ha, 20-22 d (Tables 4-6)
[22] = Compound 1 5 g ae/ha, 20-22 d (Table 7)
[23] = Isoproturon 150 g ai/ha, 20-22 d

Compound: CCNc1nc(Cl)nc(NC(C)C)n1 [Atrazine]
- Effect (% visual injury) Obs ([1]; Atrazine 450 g ai/ha, 20-22 d): 45%
- Effect (% visual injury) Obs ([2]; Atrazine 450 g ai/ha, 20-22 d): 50%
- Effect (% visual injury) Obs ([3]; Atrazine 450 g ai/ha, 20-22 d): 0%
- Effect (% visual injury) Obs ([4]; Atrazine 450 g ai/ha, 20-22 d): 5%

Compound: CC(C)N1C(=O)c2ccccc2NS1(=O)=O [Bentazon]
- Effect (% visual injury) Obs ([5]; Bentazon 60 g ai/ha, 20-22 d): 0%
- Effect (% visual injury) Obs ([6]; Bentazon 60 g ai/ha, 20-22 d): 0%
- Effect (% visual injury) Obs ([7]; Bentazon 60 g ai/ha, 20-22 d): 0%
- Effect (% visual injury) Obs ([2]; Bentazon 60 g ai/ha, 20-22 d): 10%
- Effect (% visual injury) Obs ([3]; Bentazon 60 g ai/ha, 20-22 d): 0%
- Effect (% visual injury) Obs ([8]; Bentazon 60 g ai/ha, 20-22 d): 20%
- Effect (% visual injury) Obs ([9]; Bentazon 60 g ai/ha, 20-22 d): 0%
- Effect (% visual injury) Obs ([10]; Bentazon 60 g ai/ha, 20-22 d): 0%
- Effect (% visual injury) Obs (winter wheat (TRZAW) [11]; Bentazon 60 g ai/ha): 0%
- Effect (% visual injury) Obs (corn (ZEAMX); Bentazon 60 g ai/ha): 0%

Compound: N#Cc1cc(Br)c(O)c(Br)c1 [Bromoxynil]
- Effect (% visual injury) Obs ([12]; Bromoxynil 70 g ai/ha): 25%
- Effect (% visual injury) Obs ([13]; Bromoxynil 70 g ai/ha): 0%
- Effect (% visual injury) Obs ([14]; Bromoxynil 70 g ai/ha): 20%
- Effect (% visual injury) Obs ([15]; Bromoxynil 70 g ai/ha): 5%
- Effect (% visual injury) Obs (maize (ZEAMX); ZEAMX, Bromoxynil 70 g ai/ha, postemergence, 20-22 d): 0%
- Effect (% visual injury) Obs (winter wheat (TRZAW) [16]; TRZAW, Bromoxynil 70 g ai/ha, postemergence, 20-22 d): 0%
- Effect (% visual injury) Obs (winter wheat (TRZAW) [17]; Bromoxynil 70 g ai/ha): 0%
- Effect (% visual injury) Obs (winter wheat (TRZAW) [17]; Bromoxynil 140 g ai/ha): 0%
- Effect (% visual injury) Obs (spring barley (HORVS)): 0%
- Effect (% visual injury) Obs ([18]; Bromoxynil 140 g ai/ha): 0%
- Effect (% visual injury) Obs ([19]; Bromoxynil 70 g ai/ha): 40%

Compound: Nc1c(F)c(-c2ccc3cc[nH]c3c2F)nc(C(=O)O)c1Cl [Compound 1]
- Effect (% visual injury) Obs [5, 21]: 60%
- Effect (% visual injury) Obs [20, 21]: 97%
- Effect (% visual injury) Obs [1, 22]: 40%
- Effect (% visual injury) Obs [6, 21]: 0%
- Effect (% visual injury) Obs [7, 21]: 10%
- Effect (% visual injury) Obs [2, 22]: 65%
- Effect (% visual injury) Obs [2, 21]: 93%
- Effect (% visual injury) Obs [3, 22]: 97%
- Effect (% visual injury) Obs [3, 21]: 97%
- Effect (% visual injury) Obs [8, 21]: 50%
- Effect (% visual injury) Obs [9, 21]: 20%
- Effect (% visual injury) Obs [10, 21]: 10%
- Effect (% visual injury) Obs [4, 22]: 5%
- Effect (% visual injury) Obs [4, 21]: 10%
- Effect (% visual injury) Obs (rice (ORYSA); Oryza sativa (rice), in vivo): 0%

Compound: Nc1c(F)c(-c2ccc3cc[nH]c3c2F)nc(C(=O)OCc2ccccc2)c1Cl [Compound 2]
- Effect (% visual injury) Obs ([12]; Compound 2 5 g ae/ha): 10%
- Effect (% visual injury) Obs ([12]; Compound 2 10 g ae/ha): 20%
- Effect (% visual injury) Obs ([13]; Compound 2 5 g ae/ha): 5%
- Effect (% visual injury) Obs ([13]; Compound 2 10 g ae/ha): 10%
- Effect (% visual injury) Obs ([14]; Compound 2 5 g ae/ha): 88%
- Effect (% visual injury) Obs ([14]; Compound 2 10 g ae/ha): 100%
- Effect (% visual injury) Obs ([15]; Compound 2 5 g ae/ha): 35%
- Effect (% visual injury) Obs ([15]; Compound 2 10 g ae/ha): 75%
- Effect (% visual injury) Obs (maize (ZEAMX); Zea mays (maize), in vivo): 3%
- Effect (% visual injury) Obs (winter wheat (TRZAW) [16]; Triticum aestivum (winter wheat), in vivo): 3%

Compound: Nc1c(F)c(-c2ccc3cc[nH]c3c2F)nc(C(=O)[O-])c1Cl.[K+] [Compound 7]
- Effect (% visual injury) Obs ([18]; Compound 7 8.75 g ae/ha): 70%
- Effect (% visual injury) Obs ([19]; Compound 7 5 g ae/ha): 50%
- Effect (% visual injury) Obs ([19]; Compound 7 10 g ae/ha): 65%

Compound: CC(C)c1ccc(NC(=O)N(C)C)cc1 [Isoproturon]
- Effect (% visual injury) Obs [5, 23]: 0%
- Effect (% visual injury) Obs [20, 23]: 0%
- Effect (% visual injury) Obs [7, 23]: 0%
- Effect (% visual injury) Obs [8, 23]: 0%
- Effect (% visual injury) Obs [9, 23]: 10%
- Effect (% visual injury) Obs [4, 23]: 0%

Compound: CSc1nnc(C(C)(C)C)c(=O)n1N [Metribuzin]
- Effect (% visual injury) Obs ([5]; Metribuzin 25 g ai/ha, 20-22 d): 0%
- Effect (% visual injury) Obs ([7]; Metribuzin 25 g ai/ha, 20-22 d): 0%
- Effect (% visual injury) Obs ([2]; Metribuzin 25 g ai/ha, 20-22 d): 10%
- Effect (% visual injury) Obs ([3]; Metribuzin 25 g ai/ha, 20-22 d): 0%
- Effect (% visual injury) Obs ([8]; Metribuzin 25 g ai/ha, 20-22 d): 0%
- Effect (% visual injury) Obs ([9]; Metribuzin 25 g ai/ha, 20-22 d): 10%
- Effect (% visual injury) Obs (winter wheat (TRZAW) [11]; Metribuzin 25 g ai/ha): 0%
- Effect (% visual injury) Obs (corn (ZEAMX); Metribuzin 25 g ai/ha): 0%
- Effect (% visual injury) Obs (rice (ORYSA); ORYSA, Metribuzin 25 g ai/ha, postemergence, 20-22 d): 0%
